Experimental data reported in patent publication US10028961B2, “Therapeutically active compounds and their methods of use” (AGIOS PHARMACEUTICALS, INC., priority 2013, dated 2018).
Read-outs that look alike come from different tables or passages of the source.

Key:
[1] = target: IDH2 R140Q (Homo sapiens (Human), UniProt P48735, R140Q); experiment: In vitro assay for IDH2m R140Q inhibitors, cofactor depletion assay; format: biochemical; details: IDH2 R140Q enzyme
Description: The following describes the experimental procedures used to obtain data on column 7 of Table 4.
The reaction is terminated by the addition of a second enzyme, diaphorase, and a corresponding substrate, resazurin. Diaphorase reduces resazurin to the highly fluorescent resorufin with the concomitant oxidation of NADPH to NADP, both halting the IDH2 reaction by depleting the available cofactor pool and facilitating quantitation of the amount of cofactor remaining after a specific time period through quantitative production of an easily detected fluorophore.
The test compound is then incubated for one hour at room temperature with the enzyme; before starting the IDH2 reaction with the addition of 10 μl of substrate mix containing 4 μM NADPH and 1.6 mM α-KG in the buffer described above. After a further 16 hours of incubation at room temperature, the reaction is halted and the remaining NADPH measured through conversion of resazurin to resorufin by the addition of 25 μl Stop Mix (36 μg/ml diaphorase enzyme and 60 μM resazurin; in buffer).

[2] = system: U87MG pLVX-IDH2 R140Q-neo cells; experiment: U87MG pLVX-IDH2 R140Q-neo cell based assay, 2-HG by LC-MS; details: Homo sapiens, U-87 MG
[3] = target: IDH1 wt/IDH1 R132H heterodimer (Homo sapiens (Human), UniProt O75874, R132H); experiment: In vitro assay for IDH1m R132H inhibitors, IDH1 wt/IDH1 R132H heterodimer, NADPH depletion (diaphorase/resazurin); format: biochemical
Chain of IDH1 wt/IDH1 R132H heterodimer (O75874 whole entry R132H): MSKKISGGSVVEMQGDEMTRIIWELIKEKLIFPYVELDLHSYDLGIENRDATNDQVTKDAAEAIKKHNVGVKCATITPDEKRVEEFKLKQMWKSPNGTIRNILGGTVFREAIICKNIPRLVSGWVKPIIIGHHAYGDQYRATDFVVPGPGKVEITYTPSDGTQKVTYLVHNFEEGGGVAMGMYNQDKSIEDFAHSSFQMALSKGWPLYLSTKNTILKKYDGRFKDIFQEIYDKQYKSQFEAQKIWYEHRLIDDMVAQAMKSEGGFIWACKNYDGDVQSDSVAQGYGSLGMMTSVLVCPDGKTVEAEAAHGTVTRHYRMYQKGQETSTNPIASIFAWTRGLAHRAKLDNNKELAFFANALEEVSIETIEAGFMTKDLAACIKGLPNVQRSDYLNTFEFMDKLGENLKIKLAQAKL
Chain of IDH1 wt/IDH1 R132H heterodimer (O75874 whole entry, stated change not applied): as the sequence (O75874 whole entry R132H) above, with H132R counted along it
Protocol: The following describes the experimental procedures that can be used to obtain data on columns 2 and 4 of Table 4 and column 2 of Table 5.
In the primary reaction, the reduction of α-KG acid to 2-HG is accompanied by a concomitant oxidation of NADPH to NADP. The amount of NADPH remaining at the end of the reaction time is measured in a secondary diaphorase/resazurin reaction in which the NADPH is consumed in a 1:1 molar ratio with the conversion of resazurin to the highly fluorescent resorufin.
The mixture of compound, enzyme, and cofactor is pre-incubated at room temperature for 1 hr prior to the addition of alpha-ketoglutarate. To perform the secondary reaction, 10 uL of 1× buffer containing 36 μg/ml diaphorase and […] resazurin is added to the primary reaction and incubated for a further 5 minutes at 25° C. […] Compounds or compound dilutions are prepared in 100% DMSO concentration and diluted 1:50 into the final reaction. […] IC50s are determined.
IDH1 or IDH2 wildtype (wt) and mutant heterodimers are expressed and purified by methods known in the art. […] Co-expression of IDH1wt-his and IDH1R132C-flag is carried out in sf9 insect cells. Cells (25 g) are resuspended in 250 ml of 50 mM Tirs, 500 mM NaCl, pH7.4, at 4° C. with stirring. Cells are disrupted with 4 passes through an M-Y110 Micro fluidizer (Microfluidics) set to 500 psi, and then centrifuged at 22,000 rcf for 20 min at 4° C. The supernatant is harvested and loaded at 15 cm/h on a Histrap FF 5*1 ml column (GE) which is equilibrated with 50 mM Tirs, 500 mM NaCl, pH7.4. Host cell contaminants are removed by washing the column with equilibration buffer followed by equilibration buffer containing 20 mM imidazole and 60 mM imidazole to baseline. IDH1wt-his homodimer and IDH1wt-his/IDH1R132C-flag are eluted by equilibration buffer containing 250 mM imidazole. Fractions eluted by 250 mM imidazole are pooled together and loaded at 15 cm/h onto a column pre-packed with 10 ml ANTI-FLAG® M2 Affinity Gel (Sigma), the column is equilibrated with 50 mM Tris, 500 mM NaCl, pH7.4. After washing with equilibration buffer, IDH1wt-his/IDH1R132C-flag heterodimer is eluted by equilibration buffer containing flag peptide (0.2 mg/ml). Aliquots of IDH1wt-his/IDH1R132C-flag are flash frozen in liquid N2 and stored at −80° C. Same conditions are used for the purification of IDH1wt-his/IDH1R132H-flag.

[4] = system: Neurosphere cells (TS603); experiment: Cellular assay for IDH1m R132H inhibitors, 2-HG by LC-MS in neurosphere cells (TS603); format: cell-based; details: 2-HG in media at 48 hours
Protocol: Cellular Assay for IDH1m R132H Inhibitors.
The following describes the experimental procedures that can be used to obtain data in column 4 of Table 5.
Neurosphere cells (TS603) are grown at 37 C in 5% CO2 in Stem Cell Technologies NeuroCult™ NS-A media supplemented with 1% Primocin, 1% Normocin, 0.0002% Heparin, 20 ng/mL EGF and 10 ng/mL bFGF. Cells are harvested, pelleted and resuspended in Accumax for cell dissociation and counting. Cells are counted and then resuspended in NeuroCult media with 2× heparin, EGF and bFGF at 4 million cells/10 mL media. 100 μl of cell solution are plated in each well of a 96 well with the exception of columns 1 and 12. Columns 1 and 12 contain 200 μL PBS. Compound dose responses are set up at a 2× concentration in Neurocult media without heparin, EGF and bFGF. The final concentration of DMSO is 0.25%. DMSO only control wells are plated in row H. The plates are then placed in the incubator for 48 hours. At 48 hours, 100 μl of media is removed from each well and analyzed by LC-MS for 2-HG concentrations. The cell plate is placed back in the incubator for another 24 hours. At 72 hours post compound addition, 10 mL/plate of Promega Cell Titer Glo reagent is thawed and mixed. The cell plate is removed from the incubator and allowed to equilibrate to room temperature. Then 100 μl of Promega Cell Titer Glo reagent is added to each well of media. The cell plate is then placed on an orbital shaker for 10 minutes and then allowed to sit at room temperature for 20 minutes. The plate is then read for luminescence with an integration time of 500 ms.

[5] = IDH1 wt/IDH1 R132H heterodimer, 300 μM NADP (saturated), read-out: IDH1 wt/R132H NADPH/NADP IC50 saturated
[6] = IDH1 wt/R132H heterodimer, NADPH/NADP, not saturated, read-out: IDH1 wt/R132H NADPH/NADP IC50 not saturated

Chain of IDH2 R140Q (P48735 40-452 R140Q): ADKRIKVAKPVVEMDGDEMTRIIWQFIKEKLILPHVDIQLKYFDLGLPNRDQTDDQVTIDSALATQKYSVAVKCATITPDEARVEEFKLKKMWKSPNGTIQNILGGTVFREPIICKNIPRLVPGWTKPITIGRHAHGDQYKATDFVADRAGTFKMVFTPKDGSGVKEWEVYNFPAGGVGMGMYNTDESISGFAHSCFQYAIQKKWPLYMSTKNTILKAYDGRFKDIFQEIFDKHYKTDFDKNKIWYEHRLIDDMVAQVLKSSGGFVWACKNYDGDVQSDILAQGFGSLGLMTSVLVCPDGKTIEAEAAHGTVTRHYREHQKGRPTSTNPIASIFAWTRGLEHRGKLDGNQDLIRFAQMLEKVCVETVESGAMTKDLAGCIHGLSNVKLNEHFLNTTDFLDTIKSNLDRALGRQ

| IC50 [1] [nM] | IC50 [2] [nM] | IC50 [3, 5] [nM] | IC50 [4] [nM] | IC50 [3, 6] [nM] | Compound |
| --- | --- | --- | --- | --- | --- |
| < 50 | < 50 | < 50 | < 50 | – | FC1(F)CCC(Nc2nc(Nc3ccnc(C(F)(F)F)c3)nc(-c3nc(C(F)(F)F)cs3)n2)C1 (stereo not shown) [Compound 353] |
| < 50 | < 50 | 50 to 100 | < 50 | – | CC(F)(F)c1cc(Nc2nc(NC3CCC(F)(F)CC3)nc(-c3cccc(C(F)(F)F)n3)n2)ccn1 [Compound 361] |
| < 50 | < 50 | 100 to 1000 | < 50 | – | FC(F)(F)c1cc(Nc2nc(NCC3CC3)nc(-c3cncc(C(F)(F)F)n3)n2)ccn1 [Compound 387] |
| < 50 | < 50 | < 50 | < 50 | – | CC(F)(F)c1cccc(-c2nc(Nc3ccnc(C4(C#N)CC4)c3)nc(NC3CC(F)(F)C3)n2)n1 [Compound 372] |
| < 50 | < 50 | < 50 | < 50 | – | CC(F)(F)c1cncc(-c2nc(NC3CC(F)(F)C3)nc(NC3CC(F)(F)C3)n2)n1 [Compound 366] |
| < 50 | < 50 | < 50 | < 50 | – | FC1(F)CC[C@H](Nc2nc(N[C@H]3CCC(F)(F)C3)nc(-c3cncc(C(F)(F)F)n3)n2)C1 [Compound 406] |
| < 50 | < 50 | < 50 | < 50 | – | CC(F)(F)c1cc(Nc2nc(N[C@@H]3CCC(F)(F)C3)nc(-c3cccc(C(F)(F)F)n3)n2)ccn1 [Compound 355] |
| < 50 | < 50 | 100 to 1000 | < 50 | – | C[C@@H](Nc1nc(Nc2ccnc(-c3ccc(C#N)cc3)c2)nc(-c2cccc(C(F)(F)F)n2)n1)C(F)(F)F [Compound 383] |
| < 50 | < 50 | 50 to 100 | < 50 | – | CC(F)(F)c1csc(-c2nc(NC3CCC(F)(F)CC3)nc(NC3CCC(F)(F)CC3)n2)n1 [Compound 357] |
| < 50 | < 50 | 50 to 100 | < 50 | – | FC(F)(F)c1cccc(-c2nc(NCC3CC3(F)F)nc(NCC3CC3(F)F)n2)n1 (stereo not shown) [Compound 354] |
| 50 to 100 | 50 to 100 | 50 to 100 | < 50 | – | C[C@@H](Nc1nc(N[C@H](C)C(F)(F)F)nc(-c2ccnc(C(F)(F)F)n2)n1)C(F)(F)F [Compound 344] |
| < 50 | < 50 | – | < 50 | < 50 | Fc1ccc2c(c1)CC(Nc1nc(NC3CCC(F)(F)C3)nc(-c3cccc(C(F)(F)F)n3)n1)C2 (stereo not shown) [Compound 150] |
| < 50 | < 50 | – | < 50 | < 50 | C[C@@H](Nc1nc(N[C@H](C)C2CC2)nc(-c2cccc(C(F)F)n2)n1)C1CC1 [Compound 198] |
| < 50 | < 50 | < 50 | < 50 | – | Fc1cc(F)cc(Nc2nc(NC3CCC(F)(F)CC3)nc(-c3cncc(C(F)(F)F)n3)n2)c1 [Compound 367] |
| < 50 | < 50 | < 50 | < 50 | – | C[C@H](Nc1nc(Nc2ccnc(C3(C#N)CC3)c2)nc(-c2cccc(C(C)(F)F)n2)n1)C(F)(F)F [Compound 347] |
| < 50 | < 50 | 100 to 1000 | < 50 | – | FC1(F)CC2(CC(Nc3nc(Nc4ccnc(C(F)(F)F)c4)nc(-c4cncc(C(F)(F)F)n4)n3)C2)C1 [Compound 380] |
| < 50 | < 50 | – | < 50 | < 50 | FC1(F)CCC(Nc2nc(NC3CCC(c4ccccc4)C3)nc(-c3cccc(C(F)(F)F)n3)n2)C1 (stereo not shown) [Compound 184] |
| 100 to 1000 | 100 to 1000 | < 50 | < 50 | – | CC[C@H](Nc1nc(N[C@@H](CC)C(F)(F)F)nc(-c2ccnc(C(F)(F)F)n2)n1)C(F)(F)F [Compound 345] |
| < 50 | < 50 | – | < 50 | < 50 | Fc1cc(F)cc(Nc2nc(NC3CCC(F)(F)C3)nc(-c3cncc(Cl)n3)n2)c1 (stereo not shown) [Compound 109] |
| < 50 | < 50 | 100 to 1000 | 50 to 100 | – | FC1(F)CC[C@@H](Nc2nc(Nc3ccnc(C(F)(F)F)c3)nc(-c3ccnc(C(F)(F)F)n3)n2)C1 [Compound 340] |
| < 50 | < 50 | 50 to 100 | < 50 | – | FC(F)(F)c1cc(Nc2nc(NCC3CC3)nc(-c3nc(C(F)(F)F)cs3)n2)ccn1 [Compound 379] |
| < 50 | < 50 | 50 to 100 | < 50 | – | C[C@@H](Nc1nc(Nc2ccnc(-c3ccc(Cl)cc3)c2)nc(-c2cccc(C(F)(F)F)n2)n1)C(F)(F)F [Compound 364] |
| < 50 | < 50 | < 50 | < 50 | – | CC[C@H](Nc1nc(N[C@@H](CC)C(F)(F)F)nc(-c2cccc(C(F)(F)F)n2)n1)C(F)(F)F [Compound 346] |
| < 50 | < 50 | – | < 50 | < 50 | Fc1ccc([C@H]2C[C@H](Nc3nc(NC4CCC(F)(F)C4)nc(-c4cccc(C(F)(F)F)n4)n3)C2)cc1 (stereo partly shown) [Compound 230] |
| 50 to 100 | 50 to 100 | < 50 | < 50 | – | CC[C@H](Nc1nc(N[C@@H](CC)C(F)(F)F)nc(-n2ccc(C(F)(F)F)n2)n1)C(F)(F)F [Compound 363] |
| < 50 | < 50 | 100 to 1000 | < 50 | – | N#CC1(c2cc(Nc3nc(N[C@@H]4CCC(F)(F)C4)nc(-c4nccc(C(F)(F)F)n4)n3)ccn2)CC1 [Compound 375] |
| < 50 | < 50 | < 50 | < 50 | – | C[C@H](Nc1nc(Nc2ccnc(C(F)(F)F)c2)nc(-n2ccc(C(F)(F)F)n2)n1)C(F)(F)F [Compound 356] |
| < 50 | < 50 | 100 to 1000 | < 50 | – | N#CC1(c2cc(Nc3nc(N[C@@H]4CCC(F)(F)C4)nc(-c4ccnc(C(F)(F)F)n4)n3)ccn2)CC1 [Compound 342] |
